# Results taken from patent US20260014146A1, “CDK2 INHIBITORS AND METHODS OF USING THE SAME” (Cedilla Therapeutics, Inc., priority 2022, published 2026).
# Experiments:
# [1] = target: T1, CDK2/Cyclin E1 (Homo sapiens (Human), UniProt P24941); experiment: Caliper LabChip EZ Reader mobility shift assay; type: biochemical; conditions: 2.5 nM CDK2/Cyclin E1 (14-475), 100 μM ATP, 1.5 μM fluorescent peptide; read-out: Caliper Assay (CDK2/CCNE1): IC50
# Procedure: Inhibition of CDK2/Cyclin E1 activity in the presence of compounds of the present disclosure was evaluated using a Caliper LabChip® EZ Reader mobility shift assay. In the assay, activated CDK2/Cyclin E1 catalyzes the phosphorylation of a fluorescently tagged peptide 5-FAM-QSPKKG-CONH2 (PerkinElmer, FL Peptide 18) which induces a difference in capillary electrophoresis mobility. The peptide substrate and product were measured, and the conversion ratio was used to determine the inhibition (as % activity and IC50 values) of CDK2/Cyclin E1. Reactions contained 50 mM HEPES pH 7.5, 10 mM MgCl2, 1 mM EDTA, 2 mM DTT, 0.01% Brij35, 0.5 mg/mL BSA, 0.1% DMSO, 2.5 nM CDK2/Cyclin E1 (14-475), 100 μM ATP, and 1.5 μM fluorescent peptide substrate.
# Dose titrations of inhibitors in 100% DMSO were combined with 3.25 nM CDK2/Cyclin E1 (14-475) and 130 μM of ATP in reaction buffer. The mixtures were incubated for 30 minutes before the addition of fluorescent peptide substrate to initiate the kinase reaction. The final conditions were 2.5 nM CDK2/Cyclin E1 (14-475), 100 μM ATP, and 1.5 μM fluorescent peptide. The reactions were stopped after 100 minutes with the addition of EDTA (6 mM final EDTA concentration). The stopped reactions were analyzed on a Caliper LabChip® EZ Reader II. The conversion ratios were normalized to yield % activity, plotted against compound concentration, and fit to a four-parameter equation to determine the IC50 for each compound.
# [2] = system: Kuramochi cells labeled with mApple-H2B; experiment: IncuCyte cell proliferation assay; type: cell-based; conditions: Kuramochi RB-WT, cell count 0 to 72 hours; method calls it GI50
# Procedure: IncuCyte® assay was used to measure the effect of disclosed compounds on cell proliferation. Fluorescent microscopy images of cells were taken immediately after compound treatment and 72 hours later. Image analysis software was used to obtain cell counts as a function of compound concentration. Kuramochi cells labeled with mApple-H2B were seeded on 384-well assay-ready plates. Plates were placed in an IncuCyte® (Sartorius) and scanned at 0 and 72 hours. IncuCyte® software was used to count the number of fluorescent nuclei in each well. The fold change in cell count from 0 to 72 hours in wells treated with increasing compounds concentrations (10 pts, 1/2 log dilution, 20 μM top concentration) was normalized to DMSO control wells. The normalized cell counts were fit with dose response curves and a GI50 was calculated.
# [3] = system: Kuramochi cells; experiment: BrdU cell proliferation assay; type: cell-based; conditions: 96 h, developed on day 4, read-out: BrdU - KURAMOCHI.1: IC50
# Procedure: A BrdU assay was used as a measure of proliferation based on the DNA replication process of proliferating cells. BrdU, a pyrimidine analog, is added to the cell culture and incorporated into the DNA of proliferating cells. The presence of the BrdU analog was then measured through a colorimetric ELISA. After fixation and permeabilization of cells, peroxidase-conjugated antibody recognizing BrdU is added and allowed to incubate, followed by thorough washing to remove unbound antibody. In order to quantify the amount of bound antibody, peroxidase substrate is added and produces a color that can be measured at 450 nm.
# On day −1, Kuramochi cells (Sekisui XenoTech JCRB0098) were seeded at 2,000 cells/well in columns 2-12 of a 96 well plate (Corning, CLS3596) in 150 uL media and allowed to adhere overnight at 37 degree with 5% CO2. In order to assess specificity of the compounds, Kuramochi RB^KO cells were also plated and treated, as RB^KO cells were not expected to show a proliferative response to CCNE/CDK specific inhibitors.
# On day 0, the source plate was prepared by adding 10 mM compounds and performing 3-fold serial dilutions for a 4-point dose response of each compound. Using a multichannel pipette, 2 μL of the contents of the source plate were stamped into an intermediate plate with 500 μL of RPMI 1640 Media, GlutaMAX Supplement (Life Technologies. 61870127) in each well of a Nunc 96 DeepWell™ plate, non-treated 96 DeepWell plate, 2 mL/well, sterile, natural. 60/cs (Sigma Z717274) and mixed thoroughly. 50 uL from row A of this intermediate plate were added to rows A-H of one plate of previously seeded Kuramochi cells, and each subsequent row of the intermediate plate was added to a full plate of cells.
# On day 4, the plates were developed using the BrdU ELISA Cell Proliferation Assay according to manufacturer's instructions (Roche, 11647229001). Briefly, BrdU was diluted 1:100 in Gibco®. Opti-MEM® and 20 μL/well was added, shaken for 10 minutes at 350 rpm, and then returned to the incubator for 1 hour. Following incubation, the medium was discarded, and the cells were fixed by adding 200 μL of Fix/Denature solution. The anti-BrdU peroxidase antibody was diluted 1:1000 in OptiMEM, added at 100 μL/well, and incubated while shaking (350 rpm) for one hour. Three washes with PBS were performed to remove any unbound antibody, followed by the addition of 100 μL of substrate solution to each well. […] was then added to halt the reaction, and plates were read out using an Envision spectrophotometer (Perkin Elmer) set to read 450 nm absorbance. Background absorbance values from empty wells were subtracted from all samples and then normalized to DMSO treated wells.
# [4] = target: T1, CDK2/Cyclin E1; experiment: ADP-Glo Luminescent Kinase Assay, ADPGLO (CDK2/E1-37C); type: biochemical; conditions: 0.18 nM CDK2/Cyclin E1, 100 μM ATP, 1.5 μM Histone H1, 37° C.; read-out: Pharmaron ADPGLO (CDK2/E1-37C): IC50
# Procedure: Inhibition of CDK2/Cyclin E1 activity by the presence of small molecules was evaluated using ADP-Glo Luminescent Kinase Assay (Promega). Activated CDK2/Cyclin E1 was incubated with its substrate Histone H1 (SignalChem H10-54N) in the kinase reaction buffer (100 μM ATP, 50 mM HEPES pH 7.5, 10 mM MgCl2, 1 mM EDTA, 2 mM DTT, 0.01% Brij35, 0.5 mg/mL BSA). Luminescence was recorded with an Envision plate reader (PerkinElmer).
# Dose titrations of inhibitors in 100% DMSO were combined with 0.36 nM CDK2/Cyclin E1 in reaction buffer. The mixtures were incubated for 60 minutes at 37° C. before the addition of ATP and Histone H1 substrate to initiate the kinase reaction. The final conditions were 0.18 nM CDK2/Cyclin E1, 100 μM ATP, and 1.5 μM Histone H1. The reactions were incubated at 37° C. for 90 minutes before being stopped with the addition of ADP-Glo reagent. This mixture was incubated at room temperature for 60 minutes before Kinase Detection Solution is added to generate luminescence. The stopped reactions were analyzed on an Envision plate reader. The conversion ratios were normalized to yield % activity, plotted against compound concentration, and fit to a four-parameter equation to determine the IC50 for each compound.
IC50 [1],IC50 [4],SMILES,IC50 [2],IC50 [3]
> 10 µM,,"C[C@@H](OCC1CCCCC1)[C@H](NC(=O)[C@@H]1CN(c2nccc3scnc23)CC12CN(C(=O)[C@H]1CC1(C)C)C2)C(=O)N1CCCCC1 [Compound I-10, (S)-N-((2S,3R)-3-(cyclohexylmethoxy)-1-oxo-1-(piperidin-1-yl)butan-2-yl)-2-((S)-2,2-dimethylcyclopropanecarbonyl)-6-(thiazolo[4,5-c]pyridin-4-yl)-2,6-diazaspiro[3.4]octane-8-carboxamide]",5 to 20 µM,> 10 µM
> 10 µM,,"C[C@@H](OCC1CCCCC1)[C@H](NC(=O)[C@@H]1CN(c2cccc3[nH]ccc23)CC12CN(C(=O)[C@H]1CC1(C)C)C2)C(=O)N1CCCCC1 [Compound I-14, (S)-N-((2S,3R)-3-(cyclohexylmethoxy)-1-oxo-1-(piperidin-1-yl)butan-2-yl)-2-((S)-2,2-dimethylcyclopropanecarbonyl)-6-(1H-indol-4-yl)-2,6-diazaspiro[3.4]octane-8-carboxamide]",0.5 to 5 µM,> 10 µM
,0.5 to 5 µM,"C[C@@H](OCC12CCC(CC1)OC2)[C@H](NC(=O)[C@@H]1CN(c2cc(F)cc3nccnc23)CC12CN(C(=O)C1(C(F)(F)F)CC1)C2)C(=O)N1CCC(c2nccs2)CC1 [Compound I-44, (S)-N-((2S,3R)-3-(2-oxabicyclo[2.2.2]octan-4-ylmethoxy)-1-oxo-1-(4-(thiazol-2-yl)piperidin-1-yl)butan-2-yl)-6-(7-fluoroquinoxalin-5-yl)-2-(1-(trifluoromethyl)cyclopropanecarbonyl)-2,6-diazaspiro[3.4]octane-8-carboxamide]",> 20 µM,
,> 10 µM,"C[C@@H](OCC12CCC(CC1)OC2)[C@H](NC(=O)[C@@H]1CN(c2cccc3nc(O)cnc23)CC12CN(C(=O)C1(C(F)(F)F)CC1)C2)C(=O)N1CCC(c2nccs2)CC1 [Compound I-45, (S)-N-((2S,3R)-3-((2-oxabicyclo[2.2.2]octan-4-yl)methoxy)-1-oxo-1-(4-(thiazol-2-yl)piperidin-1-yl)butan-2-yl)-6-(2-hydroxyquinoxalin-5-yl)-2-(1-(trifluoromethyl)cyclopropane-1-carbonyl)-2,6-diazaspiro[3.4]octane-8-carboxamide]",> 20 µM,
,> 10 µM,"C[C@@H](OCC12CCC(CC1)OC2)[C@H](NC(=O)[C@@H]1CN(c2cc(F)cc3ncsc23)CC12CN(C(=O)C1(C(F)(F)F)CC1)C2)C(=O)N1CCC2(CC1)COC2 [Compound I-46, (S)-N-((2S,3R)-3-(2-oxabicyclo[2.2.2]octan-4-ylmethoxy)-1-oxo-1-(2-oxa-7-azaspiro[3.5]nonan-7-yl)butan-2-yl)-6-(5-fluorobenzo[d]thiazol-7-yl)-2-(1-(trifluoromethyl)cyclopropanecarbonyl)-2,6-diazaspiro[3.4]octane-8-carboxamide]",> 20 µM,

# More lines, now with the values behind:
SMILES,IC50 [1],IC50 [4],IC50 [2],IC50 [3]
"C[C@@H](OCC1CCC(F)(F)CC1)[C@H](NC(=O)[C@@H]1CN(C(=O)c2cncs2)CC12CN(c1ncco1)C2)C(C)(C)O [Compound I-4, (S)-N-((3S,4R)-4-((4,4-difluorocyclohexyl)methoxy)-2-hydroxy-2-methylpentan-3-yl)-2-(oxazol-2-yl)-6-(thiazole-5-carbonyl)-2,6-diazaspiro[3.4]octane-8-carboxamide]",1 to 10 µM,,> 20 µM,> 10 µM
"C[C@@H](OCC1CCCCC1)[C@H](NC(=O)[C@@H]1CN(c2cccc3ncsc23)CC12CN(C(=O)[C@H]1CC1(C)C)C2)C(=O)N1CCCCC1 [Compound I-7, (S)-6-(benzo[d]thiazol-7-yl)-N-((2S,3R)-3-(cyclohexylmethoxy)-1-oxo-1-(piperidin-1-yl)butan-2-yl)-2-((S)-2,2-dimethylcyclopropanecarbonyl)-2,6-diazaspiro[3.4]octane-8-carboxamide]",0.1 to 1 µM,,> 20 µM,5 to 10 µM
"C[C@@H](OCC1CCCCC1)[C@H](NC(=O)[C@@H]1CN(c2cccc3scnc23)CC12CN(C(=O)[C@H]1CC1(C)C)C2)C(=O)N1CCCCC1 [Compound I-8, 6-(benzo[d]thiazol-4-yl)-N-((2S,3R)-3-(cyclohexylmethoxy)-1-oxo-1-(piperidin-1-yl)butan-2-yl)-2-((S)-2,2-dimethylcyclopropanecarbonyl)-2,6-diazaspiro[3.4]octane-8-carboxamide]",> 10 µM,,> 20 µM,5 to 10 µM
"C[C@@H](OCC1CCCCC1)[C@H](NC(=O)[C@@H]1CN(c2nccc3[nH]ncc23)CC12CN(C(=O)[C@H]1CC1(C)C)C2)C(=O)N1CCCCC1 [Compound I-9, (S)-N-((2S,3R)-3-(cyclohexylmethoxy)-1-oxo-1-(piperidin-1-yl)butan-2-yl)-2-((S)-2,2-dimethylcyclopropanecarbonyl)-6-(1H-pyrazolo[4,3-c]pyridin-4-yl)-2,6-diazaspiro[3.4]octane-8-carboxamide]",> 10 µM,,> 20 µM,> 10 µM
"C[C@@H](OCC12CCC(CC1)OC2)[C@@H](COC1CCC(c2ccc(C(=O)O)cc2)CC1)NC(=O)[C@@H]1CN(c2cc(F)cc3ncsc23)CC12CN(C(=O)C1(C(F)(F)F)CC1)C2 (stereo partly drawn) [Compound I-47, 4-(4-((2R,3R)-3-((2-oxabicyclo[2.2.2]octan-4-yl)methoxy)-2-((S)-6-(5-fluorobenzo[d]thiazol-7-yl)-2-(1-(trifluoromethyl)cyclopropane-1-carbonyl)-2,6-diazaspiro[3.4]octane-8-carboxamido)butoxy)cyclohexyl)benzoic acid]",,> 10 µM,5 to 20 µM,
